What all share (assay type): functional
Details in all cases: Homo sapiens

One assay relates to IGROV-1. Put plainly: Growth inhibition against IGROVI (ovarian cancer) cell line using SRB protein cytotoxicity assay.
The test system of the next assay is KM12. Briefly: Growth inhibition against KM12 (colon cancer) cancer cell line using SRB protein cytotoxicity assay.
The test system of a further assay is NCI/ADR-RES. Briefly: Growth inhibition against NCI/ADR-RES (breast cancer) cell line using SRB protein cytotoxicity assay.
In the next assay the test system is SF-268. Briefly: Growth inhibition against SF-268 cancer cell line using SRB protein cytotoxicity assay.
The test system of another assay is SNB-75. Put plainly: Growth inhibition against SNB-75 (CNS cancer) cell line using SRB protein cytotoxicity assay.

Bounds are passed on as bounds.

With `CCOC(=O)c1cnc2oc3ccc(O)cc3c2c1-c1ccccc1`, the GI50 in the assay on IGROV-1 was 2.5 µM; with KM12, 5.1 µM; in the assay on NCI/ADR-RES, 4.7 µM; in the assay with SF-268, 29.7 µM; in the assay with SNB-75, 16.5 µM.

For `CC(=O)c1cnc2oc3ccc(O)cc3c2c1-c1ccccc1`, the 50% growth inhibitory concentration (GI50) worked out at 5 µM in the assay with IGROV-1; 40.8 µM in the assay with KM12; 19.6 µM with NCI/ADR-RES; 27.7 µM in the assay on SF-268; 2.6 µM in the assay with SNB-75.

For `CCOC(=O)c1cnc2oc3ccc(O)cc3c2c1C`, the GI50 in the assay with IGROV-1 is 86 µM; in the assay with KM12, 70.3 µM; in the assay on NCI/ADR-RES it was 41 µM; in the assay on SF-268, 69.9 µM; in the assay with SNB-75, 26 µM.

The compound `CC(=O)c1cnc2oc3ccc(O)cc3c2c1C` gave a GI50 with SF-268 greater than 100 µM.

Broadly, the GI50 is the concentration at which growth is held to half of that of the control.
